Laboratory results: patent publication US20240284907A1, “NOVEL DERIVATIVES OF NON-CODED AMINO ACIDS AND THEIR USE AS HERBICIDES” (FortePhest LTD., priority 2021, published 2024)

Tests used:
[1] = test system: Seeds of Lettuce R. (Super-Jericho); assay: Filter paper bioassay with lettuce seeds: germination and early plant development, Minimal Effective Concentration (MEC); type: in vivo; conditions: lettuce seeds on filter paper, 0 to 1 mmol/l, visually assessed after 6 days
Method in brief: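 Non-sterilized Super-Jericho lettuce seeds, 10 per dish, on filter paper wetted with aqueous test solution at 0–1 mmol/l. Kept 48 h dark, then 4 days at 6/18 dark/light. MEC is the lowest concentration causing no germination or radicle/shoot malformation by visual scoring at day 6; at least two repeats.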

[2] = test system: Romaine lettuce (Lactuca sativa L.) plants; assay: Post-emergence herbicidal activity on potted Romaine lettuce plants (soil or foliar application); type: in vivo; conditions: lettuce at 2 to 3 leaves, two weeks after treatment
Method in brief: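 Potted lettuce at the 2-3 leaf stage received compound in 0.1% aqueous Silwet, up to 0.0001%, applied to soil (1 ml/pot) or sprayed on foliage (0.1 ml/pot), 20 plants per concentration. Visual scoring and aboveground wet weight after two weeks; growth inhibition from median weights versus control.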

[3] = test system: Amaranth; assay: Herbicidal effect on potted weeds, plant development score; type: in vivo; conditions: soil application 1 mg/pot, scale 0 (dead plants) to 5 (healthy, as Control)
Procedure: (§1) Weed seeds were sawn in 0.3-liter pots, containing medium-heavy clay-loam soil from organic fields (55% clay, 23% silt, 20% sand, 2% organic matter, pH 7.1). The experiment was conducted in a completely randomized design. Each treatment was replicated 3 times (3 pots). Each compound was typically tested on crops (Corn, Wheat, Soy, Cotton, Oat, Chickpea) and weeds (Amaranth, Chenopodium, Lentils, Sinapis, Silybum).
(§2) The herbicides were applied at dose from 0 (control) to 5 mg/pot. The treatment was performed at the day of sawn (pre-emergence treatment). Then the pots were transferred to a mesh house 24 hours after herbicide application and were sprinkler irrigated to field capacity of the soil. Alternatively, the herbicides were applied on grown plants at stage 2-3 true leaves (post-emergence treatment).
(§3) The plants were grown in the mesh house during the entire experiment. Plant development at 6, 12, 19, 26 and 32 days after application (DAA) were evaluated on a scale of 0 to 5, in which 0 represents dead plants and 5 represents healthy plants similar or not different from Control. In the context of the invention, the herbicidal effect was expressed as a score calculated as an average of assessments of plants vigor, height, and leaf color.

[4] = test system: Chenopodium; assay: as above; type: in vivo; conditions: soil application 1 mg/pot, scale 0 (dead plants) to 5 (healthy, as Control)
Procedure: as §1, §2, §3

[5] = test system: Lentils; assay: as above; type: in vivo; conditions: soil application 1 mg/pot, scale 0 (dead plants) to 5 (healthy, as Control)
Procedure: as §1, §2, §3

[6] = test system: Silybum; assay: as above; type: in vivo; conditions: soil application 1 mg/pot, scale 0 (dead plants) to 5 (healthy, as Control)
Procedure: as §1, §2, §3

[7] = test system: Sinapis; assay: as above; type: in vivo; conditions: soil application 1 mg/pot, scale 0 (dead plants) to 5 (healthy, as Control)
Procedure: as §1, §2, §3

[8] = test system: Romaine lettuce (Lactuca sativa L.) plants; assay: Comparison of NAA and DNAA: growth inhibition of potted Romaine lettuce plants; type: in vivo; conditions: two weeks after treatment
Procedure: The tests were performed on Romaine lettuce (Lactuca sativa L.) plants at the stage 2 to 3 leaves. The plants were grown in mini-pots packed with soil, dimensions 2×2×5 cm, one plant per mini-pot. Test compounds were dissolved in 0.1% aqueous solution water solution of Silwet adjuvant. The test material where applied in rate 0 (Control), 0.01, 0.05, and 0.5 mg/pot. The test compounds were applied on soil or foliar with airbrush (0.1 ml per pot). Each concentration was tested on 20 plants. Two weeks after the treatment the herbicidal effects of the respective test material were visually evaluated (aboveground part and roots. Then the aboveground part of the plants was neatly cut and weighed (wet weight) to assess the growth inhibition caused by the test compound. The growth inhibition (GI) was calculated as following: […]
Where Mt and Mc are median wet weight of treated and control plants, respectively.

[9] = test system: Seeds of Lettuce R. (Super-Jericho); assay: Filter paper bioassay with lettuce seeds: germination, Fully Effective Concentration (FEC); type: in vivo; conditions: lowest concentration mostly preventing lettuce seed germination, assessed after 6 days
Method in brief: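 Ten lettuce seeds per Petri dish on filter paper with 2.0 ml aqueous test solution, 0 to 1 mmol/l, kept 48 hours dark then 4 days at 6/18 dark/light. Radicle and shoot assessed visually at day 6; FEC is the lowest concentration mostly preventing germination.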

[10] = foliar application, 0.05 mg/pot
[11] = foliar application, 0.50 mg/pot

Row | Compound | Score (activity score of Minimal Effective Concentration, MEC) [1] | Score (test material causing more than 85% of Growth Inhibition or irreversible plant damage) ([2]; foliar application) | Score (test material causing more than 85% of Growth Inhibition or irreversible plant damage) ([2]; soil application) | Average Herbicidal Effect, Amaranth ([3]; post-emergence) | Average Herbicidal Effect, Amaranth ([3]; pre-emergence) | Average Herbicidal Effect, Chenopodium ([4]; post-emergence) | Average Herbicidal Effect, Chenopodium ([4]; pre-emergence) | Average Herbicidal Effect, Lentils ([5]; post-emergence) | Average Herbicidal Effect, Lentils ([5]; pre-emergence) | Average Herbicidal Effect, Silybum ([6]; post-emergence) | Average Herbicidal Effect, Silybum ([6]; pre-emergence) | Average Herbicidal Effect, Sinapis ([7]; post-emergence) | Average Herbicidal Effect, Sinapis ([7]; pre-emergence) | Herbicidal effect, growth application (%) [8, 10] | Herbicidal effect, growth application (%) [8, 11] | Herbicidal effect, growth application (%) ([8]; soil application, 0.01 mg/pot) | Herbicidal effect, growth application (%) ([8]; soil application, 0.05 mg/pot) | Herbicidal effect, growth application (%) ([8]; soil application, 0.50 mg/pot) | melting point | FEC (Fully Effective Concentration) [9]
1 | 2-(6-bromopyridin-2-yl)-2,2-difluoroacetic acid [compound 6617] | Strong (0.01 mM) | moderate (0.5) | strong (0.01 to 0.05) | 2.0 | 4.5 | 0.5 | 4.5 | 1.0 | 2.0 | 4.5 | 5.0 | 2.0 | 3.5 | 88% | 100% | 52% | 92% | 91% | – | –
2 | CC(=O)NCCc1nc(Cl)sc1Cl [ID 5650, N-[2-(2,5-dichloro-1,3-thiazol-4-yl)ethyl]acetamide] | – | – | – | – | – | – | – | – | – | – | – | – | – | – | – | – | – | – | 87 °C | –
3 | O=C(O)Cc1cc(Cl)sc1Cl [compound 586, 2-(2,5-dichlorothiophen-3-yl) acetic acid] | strong | moderate (0.5) | moderate (0.5) | 3.3 | 2.0 | – | 1.5 | 3.2 | 0.5 | 3.7 | 1.0 | 0.0 | 5.0 | – | – | – | – | – | – | 0.050 mM
4 | O=C([O-])C(F)(F)c1csc(Cl)n1.[Na+] [compound 5666, sodium(2-chloro-1,3-thiazol-4-yl)(difluoro)acetate] | very strong | strong (0.01 to 0.05) | strong (0.01 to 0.05) | 1.2 | 1.0 | 1.5 | 0.0 | 0.0 | 0.0 | 0.0 | 0.5 | 0.0 | 1.0 | – | – | – | – | – | – | 0.010 mM
5 | O=C(O)C(F)(F)c1nc(Cl)sc1Cl [compound 5667, 2-(2,5-dichloro-1,3-thiazol-4-yl)-2,2-difluoroacetic acid] | very strong | strong (0.01 to 0.05) | strong (0.01 to 0.05) | 3.0 | 2.0 | 2.4 | 0.0 | 0.0 | 0.0 | 0.0 | 3.5 | 0.0 | 2.0 | 92% | 100% | 90% | 91% | 100% | – | –
6 | (2,5-dichlorothiophen-3-yl)(difluoro)acetic acid [compound 5640] | Strong (0.01 mM) | strong (0.01 to 0.05) | strong (0.01 to 0.05) | 2.0 | 4.0 | – | 5.0 | 2.1 | 0.0 | 2.0 | 2.5 | 0.0 | – | 100% | 100% | 5% | 100% | 100% | – | 0.100 mM
